Data from PubChem BioAssay (NCI).
Values joined by “and” are separate entries in the source; they are usually repeats but may differ in a detail not shown here. Identical values can stand only once.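 Where inhibition never reached the appropriate level, the endpoint shown equals the highest concentration tested. Otherwise, values were interpolated linearly from a five-concentration, 48-hour dose response in 96-well plates. GI50: concentration for 50% inhibition of growth. TGI: total growth inhibition.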

Legend:
Experiment in all cases: NCI tumour cell line growth inhibition, 48 h
LOX IMVI melanoma = tested on: LOX IMVI melanoma
TK-10 renal = tested on: TK-10 renal
PC-3 prostate = tested on: PC-3 prostate
UACC-257 melanoma = tested on: UACC-257 melanoma
RXF 393 renal = tested on: RXF 393 renal
ACHN renal = tested on: ACHN renal
HL-60(TB) leukemia = tested on: HL-60(TB) leukemia
NCI-H460 lung = tested on: NCI-H460 lung
HCT-15 colon = tested on: HCT-15 colon
NCI-H522 lung = tested on: NCI-H522 lung

| SMILES | TGI (LOX IMVI melanoma) | TGI (TK-10 renal) | TGI (PC-3 prostate) | TGI (UACC-257 melanoma) | TGI (RXF 393 renal) | TGI (ACHN renal) | TGI (HL-60(TB) leukemia) | TGI (NCI-H460 lung) | TGI (HCT-15 colon) | TGI (NCI-H522 lung) | GI50 (TK-10 renal) | GI50 (ACHN renal) | GI50 (LOX IMVI melanoma) | GI50 (PC-3 prostate) | GI50 (UACC-257 melanoma) | GI50 (RXF 393 renal) | GI50 (HL-60(TB) leukemia) | GI50 (NCI-H460 lung) | GI50 (HCT-15 colon) | GI50 (NCI-H522 lung) |
| --- | --- | --- | --- | --- | --- | --- | --- | --- | --- | --- | --- | --- | --- | --- | --- | --- | --- | --- | --- | --- |
| O=C(O)/C(Cc1cn[nH]n1)=N\O | > 100 µM | > 100 µM | > 100 µM | > 100 µM | > 100 µM | > 100 µM | > 100 µM | > 100 µM | > 100 µM | > 100 µM |  |  |  |  |  |  |  |  |  |  |
| S=C1Cc2c(-c3ccc(Br)cc3)cc(-c3ccccc3)nc2-c2ccccc2N1 | 12.6 µM | 3.75 µM | 23.3 µM | 9.74 µM | 6.01 µM | 2.35 µM | > 100 µM | 2.66 µM | 14.6 µM | 8.04 µM | 1.79 µM | 0.867 µM |  |  |  |  |  |  |  |  |
| CN=C1C=CC(=C(c2ccc(N(C)C)cc2)c2ccc(N(C)C)cc2)C=C1 | 1.04 µM | 1.14 µM | 1.09 µM | 0.797 µM | 0.583 µM | 1.33 µM | 0.519 µM | 0.909 µM | 6.07 µM | 0.801 µM | 0.218 µM | 0.326 µM | 0.201 µM | 0.286 µM | 0.249 µM | 0.207 µM | 0.217 µM | 0.13 µM | 0.367 µM | 0.253 µM |
| C#C[C@@]1(O)[C@@H](CO)O[C@@H](n2cc(I)c3c(N)ncnc32)[C@@H]1O | 1.22 µM | 5.51 µM | > 38.1 µM | 27.8 µM | 2.26 µM | > 100 µM | 0.262 µM | 1.91 µM | > 100 µM | 0.6 µM | 0.551 µM | 0.314 µM | 0.0812 µM | 0.0756 µM | 2.33 µM | 0.44 µM | 0.0462 µM | 0.0895 µM | 0.137 µM | 0.0993 µM |
| C1CN(c2nnc(N3CCC3)nn2)C1 | 36.1 µM | > 100 µM | > 60 µM | 49.4 µM | > 74.5 µM | > 92.1 µM | > 100 µM | > 100 µM | > 100 µM | 85.2 µM |  |  |  |  |  |  |  |  |  |  |
| O=C(NC(=O)c1c(Cl)nc2sccn12)Nc1ccc(Cl)cc1 | > 100 µM | 89.2 µM | > 56.2 µM | > 100 µM | 76.2 µM | > 100 µM | > 100 µM | > 100 µM | > 100 µM | > 100 µM |  |  |  |  |  |  |  |  |  |  |
| CSc1nc2nc3c(nc2c(=O)n1C)C(=O)c1ccccc1C3=O | 0.315 µM | 2.1 µM | 1.46 µM | 0.265 µM | 0.819 µM | 1.04 µM | 0.514 µM | 0.393 µM | 0.429 µM | 0.332 µM | 0.766 µM | 0.299 µM | 0.128 µM | 0.269 µM | 0.131 µM | 0.253 µM | 0.209 µM | 0.101 µM | 0.164 µM | 0.16 µM |
| CNCCCNc1nc2ccccc2c2c(=O)c3cc(OC)ccc3sc12 | 2.93 µM | 3.39 µM | 3.45 µM | 4.15 µM | 3.07 µM | 3 µM | 4.04 µM | 3.13 µM | 2.95 µM | 3.88 µM | 1.73 µM | 1.64 µM | 1.57 µM | 1.74 µM | 1.99 µM | 1.56 µM | 1.95 µM | 1.67 µM | 1.52 µM | 1.84 µM |
| C#Cc1cccc(Nc2nc(Cl)nc3cc(NC(=O)CCl)ccc23)c1 | 0.809 µM | 5.29 µM | 4.71 µM | 5.82 µM | 3.38 µM | 4.63 µM | 7.27 µM | 4.24 µM | 2.03 µM | 0.897 µM | 1.74 µM | 1.48 µM | 0.41 µM | 1.05 µM | 2.36 µM | 0.857 µM | 1.42 µM | 1.44 µM | 0.592 µM | 0.465 µM |
| CS(=O)(=O)OCCCNCCCOS(C)(=O)=O | 3920 µM | 6930 µM | 5620 µM | 5310 µM | 5480 µM | 3580 µM | 2540 µM | 2450 µM | 4680 µM | 5510 µM |  |  |  |  |  |  |  |  |  |  |
| CC(=O)N1CCN(CCNC(=O)n2cc(-c3ccncc3)c(-c3cc(O)cc(Cl)c3)n2)CC1 | 22.7 µM | 50.1 µM | 57.6 µM | 4.61 µM | 17.7 µM | 61.9 µM | 29 µM | 26.3 µM | 22.2 µM | 34.1 µM | 21.8 µM | 8.26 µM | 6.85 µM | 13.6 µM | 1.85 µM | 3.67 µM | 7.79 µM | 10.1 µM | 4.25 µM | 14.9 µM |
| O=C(NCC(F)(F)F)Nc1cccc(-c2cnc3cc(-c4ccc(F)cc4)ccn23)c1 | 11.2 µM | 17.7 µM | > 100 µM | 65.5 µM | 6.36 µM | > 52.1 µM | 24.7 µM | > 100 µM | > 74 µM | 0.962 µM | 1.02 µM | 2.53 µM | 0.727 µM | 2.22 µM | 14.2 µM | 1.13 µM | 0.58 µM | 0.491 µM | 0.614 µM | 0.225 µM |
| C#CC1=CC(=O)C(OC)=CC1=O | 40 µM | > 100 µM | > 100 µM | > 100 µM | 30.1 µM | 11.3 µM | 13.4 µM | > 100 µM | 32.3 µM | 4.2 µM |  |  |  |  |  |  |  |  |  |  |
| COc1ccc(-c2cncn2-c2cc(OC)c(OC)c(OC)c2)cc1 | > 80.9 µM | 27.1 µM | > 40 µM | > 86.9 µM | 21.3 µM | 49.4 µM | 3.59 µM | > 84.6 µM | > 91.9 µM | 0.283 µM | 0.139 µM | 0.366 µM | 0.857 µM | 0.552 µM | 6.73 µM | 0.448 µM | 1.72 µM | 0.367 µM | 0.17 µM | 0.019 µM |
| COC(=O)c1c(-c2cccs2)oc(-c2cccs2)c1C(=O)OC | > 63.1 µM | 82 µM | > 100 µM | > 95.3 µM | > 100 µM | > 100 µM | > 100 µM | > 100 µM | > 100 µM | 69.7 µM | 27.9 µM | > 70.2 µM | 31.9 µM | 26.3 µM | 40.3 µM | 31 µM | 79.9 µM | 33.1 µM | 27.5 µM | 25.5 µM |
| CS(=O)(=O)Nc1cccc(-c2ccc3ncnc(Nc4ccc(F)c(Cl)c4)c3c2)c1 | 2.89 µM | 2.26 µM | 5.89 µM | 5.07 µM | 4.44 µM | 6.06 µM | 43.3 µM | 5.6 µM | 3.86 µM | 3.13 µM | 0.0801 µM | 0.113 µM | 1.46 µM | 1.94 µM | 2.05 µM | 1.49 µM | 3.53 µM | 2.15 µM | 1.47 µM | 1.04 µM |
| COc1cccc2cc(N(C)c3nc(C)nc4c3CCC4)ccc12 | 13.8 µM | 30.5 µM | 16.4 µM | 20.6 µM | 23.7 µM | 13.7 µM | 0.0103 µM | 12.4 µM | 6.41 µM | < 0.01 µM | 9.32 µM | < 0.01 µM | < 0.01 µM | < 0.01 µM | 2.57 µM | < 0.01 µM | < 0.01 µM | < 0.01 µM | < 0.01 µM | < 0.01 µM |
| N#CC1=C(N)Oc2c(ccc3ccccc23)C1c1cc(=O)oc2ccc(Cl)cc12 (stereo not given) | 40.5 µM | 73.1 µM | > 100 µM | 91.7 µM | 1.93 µM | 73.4 µM | 1.51 µM | 14 µM | 15.8 µM | 2.97 µM | 16.9 µM | 1.99 µM | 0.854 µM | 0.495 µM | 14.4 µM | 0.217 µM | 0.275 µM | 0.466 µM | 0.471 µM | 0.348 µM |
| CCCCCC(O)C(O)CCC[C@H](O)[C@H]1CC[C@H]([C@H]2CC[C@H]([C@H](O)CCCCCCCCCCCCC3=C[C@H](C)OC3=O)O2)O1 (stereo not given in full) | 2.93 µM and 14.4 µM | 26.2 µM | 25.4 µM | 8.7 µM and 18.6 µM | 30.9 µM | 6.27 µM and 20.8 µM | 4.28 µM | 31.7 µM | 40.6 µM | 23.9 µM | 6.83 µM | 2.41 µM | 1.76 µM | 9.15 µM | 1.29 µM | 11.1 µM |  | 1.69 µM | 5.48 µM |  |
